From paper PMC6001238, “Iterative Chemical Engineering of Vancomycin Leads to Novel Vancomycin Analogs With a High in Vitro Therapeutic Index” (Frontiers in Microbiology, 2018)
In brackets after ≈: the same amount, converted by molar mass.

Tests used:
[1] = test system: E. faecalis VRE 29; assay: MIC, broth microdilution, vancomycin-resistant E. faecalis VRE 29 (VanA); format: cell-based, Enterococcus faecalis; details: for MIC: Enterococcus faecalis VRE 29 (vancomycin-resistant), read-out: MIC; for MIC-fold improvement vs. vancomycin: VRE 29, ratio of MIC of vancomycin and MIC of analogue
In short: (§1)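 Serial dilutions in broth, set up per CLSI guidance, gave the MIC. Where noted, test analogues or comparator antibiotics were combined with vancomycin at 10 μM final. Controls: ultrapure water, broth without inoculum.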

[2] = test system: MRSA KS1; assay: MIC, broth microdilution, MRSA KS1; format: cell-based, Staphylococcus aureus; details: for MIC-fold improvement vs. vancomycin: MRSA KS1, ratio of MIC of vancomycin and MIC of analogue; for MIC: Staphylococcus aureus MRSA KS1, read-out: MIC
In short: as §1

[3] = test system: S. aureus VSSA (ATCC 6538); assay: MIC, broth microdilution, vancomycin-sensitive S. aureus (VSSA/MSSA, ATCC 6538); format: cell-based, Staphylococcus aureus; details: for MIC: Staphylococcus aureus VSSA, read-out: MIC; for MIC-fold improvement vs. vancomycin: VSSA, ratio of MIC of vancomycin and MIC of analogue
In short: as §1

[4] = test system: E. faecalis VSE 1; assay: MIC, broth microdilution, vancomycin-sensitive E. faecalis (VSE 1); format: cell-based, Enterococcus faecalis; details: for MIC: Enterococcus faecalis VSE 1 (vancomycin-sensitive), read-out: MIC; for MIC-fold improvement vs. vancomycin: VSE 1, ratio of MIC of vancomycin and MIC of analogue
In short: as §1

[5] = test system: human cervix carcinoma (HeLa) cells; assay: Cytostatic activity, HeLa cell proliferation; format: cell-based; details: mean ± SD of three experiments; highest concentration tested 250 µM; 4 days; read-out: Toxicity (IC50) HeLa
In short: (§2)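 Suspensions (300,000–500,000 cells/mL) combined with equal volumes of diluted compound; 37°C; L1210 2 d / CEM 3 d / HeLa 4 d; counted by Coulter counter; IC50 vs untreated wells.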

[6] = test system: Murine leukemia (L1210) cells; assay: Cytostatic activity, L1210 cell proliferation; format: cell-based; details: mean ± SD of three experiments; highest concentration tested 250 µM; 2 days; read-out: Toxicity (IC50) L1210
In short: as §2

[7] = test system: MRSA KS2; assay: MIC, broth microdilution, MRSA KS2; format: cell-based, Staphylococcus aureus; details: for MIC-fold improvement vs. vancomycin: MRSA KS2, ratio of MIC of vancomycin and MIC of analogue; for MIC: Staphylococcus aureus MRSA KS2, read-out: MIC
In short: as §1

[8] = test system: MRSA KS6; assay: MIC, broth microdilution, MRSA KS6; format: cell-based, Staphylococcus aureus; details: for MIC-fold improvement vs. vancomycin: MRSA KS6, ratio of MIC of vancomycin and MIC of analogue; for MIC: Staphylococcus aureus MRSA KS6, read-out: MIC
In short: as §1

[9] = test system: E. faecalis VRE 37; assay: MIC, broth microdilution, vancomycin-resistant E. faecalis VRE 37 (VanA); format: cell-based, Enterococcus faecalis; details: for MIC: Enterococcus faecalis VRE 37 (vancomycin-resistant), read-out: MIC; for MIC-fold improvement vs. vancomycin: VRE 37, ratio of MIC of vancomycin and MIC of analogue
In short: as §1

[10] = test system: S. aureus VRSA; assay: MIC, broth microdilution, vancomycin-resistant S. aureus (VRSA); format: cell-based, Staphylococcus aureus; details: for MIC: Staphylococcus aureus VRSA, read-out: MIC; for MIC-fold improvement vs. vancomycin: VRSA, ratio of MIC of vancomycin and MIC of analogue
In short: as §1

[11] = test system: L1210, CEM and HeLa cell lines; assay: Cytostatic activity, average or summary over L1210, CEM and HeLa; format: cell-based; details: average of L1210, CEM and HeLa; read-out: Toxicity (IC50) Average
In short: as §2

[12] = test system: S. aureus VISA/HIP5827; assay: MIC, broth microdilution, vancomycin-intermediate S. aureus VISA HIP5827; format: cell-based, Staphylococcus aureus; details: for MIC: Staphylococcus aureus VISA/HIP5827, read-out: MIC; for MIC-fold improvement vs. vancomycin: VISA/HIP5827, ratio of MIC of vancomycin and MIC of analogue
In short: as §1

[13] = test system: E. faecalis VRE 6; assay: MIC, broth microdilution, vancomycin-resistant E. faecalis VRE 6 (VanA); format: cell-based, Enterococcus faecalis; details: for MIC: Enterococcus faecalis VRE 6 (vancomycin-resistant), read-out: MIC; for MIC-fold improvement vs. vancomycin: VRE 6, ratio of MIC of vancomycin and MIC of analogue
In short: as §1

[14] = test system: MRSA KS89; assay: MIC, broth microdilution, MRSA KS89; format: cell-based, Staphylococcus aureus; details: for MIC-fold improvement vs. vancomycin: MRSA KS8, ratio of MIC of vancomycin and MIC of analogue; for MIC: Staphylococcus aureus MRSA KS8, read-out: MIC
In short: as §1

[15] = test system: human T-lymphocyte (CEM) cells; assay: Cytostatic activity, CEM cell proliferation; format: cell-based; details: mean ± SD of three experiments; highest concentration tested 250 µM; 3 days; read-out: Toxicity (IC50) CEM
In short: as §2

[16] = test system: E. faecalis VRE 53; assay: MIC, broth microdilution, vancomycin-resistant E. faecalis VRE 53 (VanA); format: cell-based, Enterococcus faecalis; details: for MIC: Enterococcus faecalis VRE 53 (vancomycin-resistant), read-out: MIC; for MIC-fold improvement vs. vancomycin: VRE 53, ratio of MIC of vancomycin and MIC of analogue
In short: as §1

MIC [1]	MIC-fold improvement vs. vancomycin [1]	MIC-fold improvement vs. vancomycin [2]	MIC [2]	MIC [3]	MIC-fold improvement vs. vancomycin [3]	MIC [4]	MIC-fold improvement vs. vancomycin [4]	MIC-fold improvement vs. vancomycin [7]	MIC [7]	MIC-fold improvement vs. vancomycin [8]	MIC [8]	MIC [9]	MIC-fold improvement vs. vancomycin [9]	MIC [10]	MIC-fold improvement vs. vancomycin [10]	MIC [12]	SMILES	IC50 [5]	IC50 [6]	IC50 [11]	also measured
6.25 µM (≈ 10.8 µg/mL)	64	>8	<0.10 µM	0.39 µM (≈ 0.673 µg/mL)	2	0.39 µM (≈ 0.673 µg/mL)	4	4	0.20 µM (≈ 0.345 µg/mL)	4	0.20 µM (≈ 0.345 µg/mL)	6.25 µM (≈ 10.8 µg/mL)	64	0.78 µM (≈ 1.35 µg/mL)	128	0.78 µM (≈ 1.35 µg/mL)	CN[C@H](CC(C)C)C(=O)N[C@H]1C(=O)N[C@@H](CC(N)=O)C(=O)N[C@H]2C(=O)N[C@H]3C(=O)N[C@H](C(=O)N[C@H](C(=O)NCC(=O)Nc4ccc(-c5cn(-c6ccccc6)nn5)cc4)c4cc(O)cc(O)c4-c4cc3ccc4O)[C@H](O)c3ccc(c(Cl)c3)Oc3cc2cc(c3O[C@@H]2O[C@H](CO)[C@@H](O)[C@H](O)[C@H]2O[C@H]2C[C@](C)(N)[C@H](O)[C@H](C)O2)Oc2ccc(cc2Cl)[C@H]1O [Vanc-77]	58 ± 7 µM	192 ± 101 µM	92 µM	MIC-fold improvement vs. vancomycin [12]: 8; MIC [13]: 1.56 µM (≈ 2.69 µg/mL); MIC-fold improvement vs. vancomycin [13]: 128; MIC-fold improvement vs. vancomycin [14]: 4; MIC [14]: 0.20 µM (≈ 0.345 µg/mL); IC50 [15]: 26 ± 1 µM; MIC [16]: 6.25 µM (≈ 10.8 µg/mL); MIC-fold improvement vs. vancomycin [16]: 64
0.78 µM (≈ 1.32 µg/mL)	512	8	0.10 µM (≈ 0.169 µg/mL)	0.10 µM (≈ 0.169 µg/mL)	8	≤0.05 µM	≥32	8	0.10 µM (≈ 0.169 µg/mL)	4	0.20 µM (≈ 0.338 µg/mL)	3.13 µM (≈ 5.3 µg/mL)	128	0.78 µM (≈ 1.32 µg/mL)	128	0.39 µM (≈ 0.66 µg/mL)	CNC(CC(C)C)C(=O)NC1C(=O)NC(CC(N)=O)C(=O)NC2C(=O)NC3C(=O)NC(C(=O)NC(C(=O)NCC(=O)Nc4ccc(-c5ccc(Cl)cc5)cc4)c4cc(O)cc(O)c4-c4cc3ccc4O)C(O)c3ccc(c(Cl)c3)Oc3cc2cc(c3OC2OC(CO)C(O)C(O)C2OC2CC(C)(N)C(O)C(C)O2)Oc2ccc(cc2Cl)C1O (centres unmarked) [Vanc-84]	13 µM	1.5 ± 0.1 µM	5 µM	MIC-fold improvement vs. vancomycin [12]: 16; MIC [13]: 0.78 µM (≈ 1.32 µg/mL); MIC-fold improvement vs. vancomycin [13]: 256; MIC-fold improvement vs. vancomycin [14]: 4; MIC [14]: 0.20 µM (≈ 0.338 µg/mL); IC50 [15]: 1.6 ± 0.9 µM; MIC [16]: 3.13 µM (≈ 5.3 µg/mL); MIC-fold improvement vs. vancomycin [16]: 128
